We go through 4 compounds from patent US11419875B2, “Compounds and compositions for treating hematological disorders” (Aurigene Discovery Technologies Limited, priority 2017, dated 2022).

Data set [1] has as its system MV4-11 cells. Kind of data set: AML xenograft model MV4-11, in vivo tumor growth inhibition. As to conditions: for body weight: all treatment groups, FIG. 4. How it is done:
ND-2158 at 100 mpk was used as a control.
MV4-11 cells were grown in Iscove's Modified Dulbecco's medium supplemented with 10% FBS and 1% penicillin streptomycin. To establish tumors, 15×10^6 MV4-11 cells were injected subcutaneously in 200 μl of 1:1 HBSS and ECM gel into the right flank of the athymic nude mice. Animals were randomized based on tumor volumes. […] Treatments were initiated when the average tumor volume sizes were 333 mm^3. Tumor volumes were measured three times a week and body weights were monitored daily.

Data set [2] has as its system MV4-11 cells. Kind of data set: MV4-11 CellTiter Glo cell viability/proliferation assay (Example 2). It counts as cell-based. As to conditions: Homo sapiens. As for the experimental part:
The CellTiter Glo Luminescent cell viability assay is a highly sensitive homogenous assay to determine the number of viable cells in culture based on quantitation of ATP levels in metabolically active cells. Addition of CTG reagent results in cell lysis and generation of a luminescent signal proportional to the amount of ATP present. The amount of ATP is proportional to the number of cells present. The luminescence is measured using a multilabel reader capable of measuring luminescence. An increase or decrease in cell numbers results in a concomitant change in luminescene level, indicating the effect of the test material on cellular proliferation.
CellTiter-Glo buffer was thawed and equilibrated to room temperature. Lyophilized CellTiter-Glo substrate was brought to room temperature. CTG reagent is prepared by mixing the CellTiter-Glo buffer (Promega Cat #G7572) into an amber bottle containing CellTiter-Glo substrate to reconstitute the lyophilized enzyme/substrate mixture. Both Buffer and the lyophilized substrate are supplied with the kit.
Add 1% Penicillin Streptomycin and 10% FBS to commercially available liquid IMDM (Iscove's Modified Dulbecco's Medium, Invitrogen Cat #12440046).
1. MV4-11 cells were counted and re-suspended to a density of 0.1×10^6 cells/ml in complete IMDM medium. 95 μL of this cell suspension was added per well of a 96-well plate (black plate with clear bottom) to seed ˜0.1×10^5 cells per well. The plates were incubated at 37° C. under a humidified atmosphere of 5% CO2 for ˜2 hours before compound addition. 2. Test compounds were dissolved in 100% DMSO to generate a 2/6/10/20 mM stock solution. A 200× concentration of the required final concentrations was prepared in DMSO. 10 μL of each concentration (200×) was then diluted in 90 μL of serum-free IMDM to prepare an intermediate concentration of 20× in medium. The DMSO concentration in this step was 10% (Intermediate dilution). 5 μL of each intermediate dilution was then added in triplicates to cells previously seeded in 96-well plate. The final DMSO concentration was 0.5% in the experimental wells. Cells treated with 0.5% DMSO served as a positive control. 100 μL of complete IMDM medium served as media blank for data analysis. 200 μL of 1×PBS was added in all corner wells of the assay plate to avoid evaporation of media in experimental wells. Plates were then incubated for 72 hours in an incubator with 5% CO2 at 37° C. 3. To terminate the assay, 50 μL of CTG reagent was added to each well and the plate was incubated at room temperature for 15 minutes on a shaker. The plate was read using the luminescence mode on a multilabel reader capable of measuring luminescence. The luminescence values were plotted against respective concentrations of the test item using GraphPad Prism to calculate the IC50 value for the test item. Percent Inhibition is Calculated as Follows: […]
Positive control wells contained cells, IMDM medium and 0.5% DMSO. Blank control wells contained IMDM medium alone.

The next data set deals with MV4-11 cell line. Kind of data set: Anti-proliferative activity, MV4-11 cell line (Example 5, CellTiter Glo). Format: cell-based. As to conditions: Homo sapiens, Example 5 procedure, 5,000 cells/well. As for the experimental part:
(§1) The same procedure was used for both the MV4-11 cells and MOLM-13 cells. Each cell line has an ITD mutation in the FLT-3 kinase.
(§2) The cells were grown to ˜80% confluence, split in half and grown overnight. The cells were seeded at a density of 5,000 cells/well in a volume of 150 μL into a 96-well black plate in all wells except columns 1 and 12 and rows A and H. They were incubated overnight in 10% serum and HBSS was added to wells on the periphery. In a deep 96-well plate, 1000 μL of 10% FBS was added into wells B2 and D2. 750 μL of 10% FBS, 1% DMSO medium per well was added in row B except well B2. 5 μL of 20 mM compound was added into well B2. 250 μL was transferred from column 2 to column 3 and mixed. The process was repeated until column G to give a 1:4 dilution. 15 μL of compound mixture was added to each well of the cell plate (135 μL volume).
Background: Cellular ATP, detected with luciferase, serves as a proxy for viable cell number.

A further data set deals with MOLM-13 cell line. Kind of data set: Anti-proliferative activity, MOLM-13 cell line (Example 5, CellTiter Glo). Format: cell-based. The conditions noted are these: Homo sapiens, Example 5 procedure, 5,000 cells/well. How it is done:
as §1, §2

The test system of a further data set is MOLM-14 FLT3-ITD tumors. Description: MOLM-14 FLT3-ITD mouse xenograft tumor model. As to conditions: 100 mg/kg orally once-daily, after 12 or 14 days of dosing. Format: in vivo, athymic nude mice. The text has this:
(§3) Compound A efficacy was compared to mice administered vehicle.

The test system of data set [3] is MOLM-14 FLT3-ITD/F691L tumors. Description: MOLM-14 FLT3-ITD/F691L mouse xenograft tumor model. As to conditions: 100 mg/kg orally once-daily, after 12 or 14 days of dosing. It counts as in vivo, athymic nude mice.
From the text: as §3

In data set [4] the test system is MOLM-14 FLT3-ITD/D835Y tumors. Description: MOLM-14 FLT3-ITD/D835Y mouse xenograft tumor model. Format: in vivo, athymic nude mice. The conditions noted are these: 100 mg/kg orally once-daily, after 12 or 14 days of dosing.
From the text: as §3

For data set [5], the system named is MOLM-14 cell line (FLT3-ITD). Description: Cell viability assay (CellTiter-Glo, 72 h), parental MOLM-14. Format: cell-based. As to conditions: Homo sapiens, mean of at least 3 assays. How it is done: (§4) The parental MOLM-14 cell line contained a FLT3-ITD mutation. Quizartinib-resistant MOLM-14 derivative cell lines MOLM-14 FLT3-ITD/D835Y and MOLM-14 FLT3-ITD/F691L contained a double FLT3 mutation (the original ITD mutation and a secondary mutation within the kinase domain).
(§5) All cells lines were cultured in RPMI 1640+GlutaMAX supplemented with 1× Pen-Strep and 10% FBS (referred to as media hereafter). Cells were cultured in 75 cm^2 or 225 cm^2 tissue culture flasks in a 37° C. humidified tissue culture incubator with 5% CO2. Cell densities were maintained between 0.5-2.0×10^6 cells/mL.
(§6) Two days before compound treatment, cells were pelleted and resuspended in fresh medium. The day of dosing, cells were counted and stained with trypan blue to determine cell viability. 5,000 viable cells were transferred in a volume of 90 μL or 135 μL per well to all wells of a 96-well tissue culture plate and returned to the tissue culture incubator. […]
(§7) After 72 h incubation, cell viability was assessed using the CellTiter-Glo Luminescent Cell Viability Assay (2.0) according to the vendor's instructions. […] Luminescence readings were measured using a TopCount384 instrument.
(§8) The percent inhibition of the compound treated samples was determined relative to the DMSO-treated cell control samples. […] The mean EC50 values from at least 3 independent viability assays performed on different days were determined.

For another data set, the system named is MOLM-14 FLT3-ITD/D835Y. Description: Cell viability assay (CellTiter-Glo, 72 h), MOLM-14 FLT3-ITD/D835Y. It counts as cell-based. The conditions noted are these: Homo sapiens, mean of at least 3 assays. How it is done:
as §4, §5, §6, §7, §8

The subject of another data set is MOLM-14 FLT3-ITD/F691L. Description: Cell viability assay (CellTiter-Glo, 72 h), MOLM-14 FLT3-ITD/F691L. It counts as cell-based. As to conditions: Homo sapiens, mean of at least 3 assays. How it is done: as §4, §5, §6, §7, §8
The mark [6] stands for this setting: 100 mg/kg i.p. once daily, 21 days.
[7] abbreviates: 72 hours, CellTiter Glo, read-out: MV4-11 IC50.

A word on the EC50: it is the midpoint of the concentration-response curve.

SMILES strings stand for the structures. Like-named read-outs stand apart in the source and are kept apart here. A value given as a limit tells only on which side of the number the result lay.

On to `NC(=O)[C@@H](O)C[C@H]1CCc2sc3ncnc(OC4CCC(N5CCOCC5)CC4)c3c21` (some centres unmarked) [ND-2158, reference compound], for which, in the data set on MV4-11 cells [1] (setting [6]), the “tolerability (clinical signs, gross pathological changes)” value was “well tolerated without any treatment related clinical signs and gross pathological changes”; the tumor growth inhibition is reported as 68%. The body weight result in the data set on MV4-11 cells [1] (21 days) was “No body weight reduction was observed”.
`Cc1cc(-c2nc(C(=O)Nc3cc4oc(N5CCOCC5)nc4nc3N3CC[C@@H](O)C3)co2)ccn1` [Compound A]: the IC50 in the data set with MV4-11 cells [2] (procedure of Example 2, read-out: IC50, inhibition of proliferation in MV4-11 cells) amounted to 31 nM; with MV4-11 cell line it was 70 nM; in the data set with MOLM-13 cell line, 190 nM. The same compound displayed a tumor growth inhibition in the data set on MV4-11 cells [1] (12.5 mg/kg orally once daily, 21 days) of 92%. For the same compound, the tumor response entry is listed as “partial tumor regression” in the data set with MV4-11 cells [1] (25 mg/kg orally once daily, 21 days); “partial tumor regression” in the data set with MV4-11 cells [1] (50 mg/kg orally once daily, 21 days); “Tumor growth stasis” with MV4-11 cells [1] (12.5 mpk, after 21 days of treatment). In addition, in the data set on MV4-11 cells [1] (12.5, 25, and 50 mg/kg orally once daily, 21 days), the “tolerability (clinical signs, gross pathological changes)” value was “well tolerated without any treatment related clinical signs and gross pathological changes”. The body weight entry in the data set on MV4-11 cells [1] (21 days) is listed as “No body weight reduction was observed”. Further, the entries for the “percent tumor growth inhibition (% TGI)” value (in the data set on MOLM-14 FLT3-ITD tumors; in data set [3]; in [4]) were 90%, 73% and 98%, respectively. In addition, the 50% effective concentration (EC50) is 58 nM in data set [5], 108 nM in the data set on MOLM-14 FLT3-ITD/D835Y and 2490 nM in the data set on MOLM-14 FLT3-ITD/F691L.
In the case of `O=C(Nc1cc2sc(N3CCOCC3)nc2nc1N1CCCCC1)c1cccc(N2CC[C@H](O)C2)n1`, the IC50 in the data set on MV4-11 cells [2] (setting [7]) is > 500 nM.
For the compound `C[C@H](O)Cn1cc(-c2cccc(C(=O)Nc3cc4cn(C)nc4cc3N3CCCCC3)n2)cn1`, in the data set on MV4-11 cells [2] (setting [7]), the IC50 is < 50 nM.
